Measured values published in patent US20160038532A1, “Treatment of Multiple Sclerosis With Combination of Laquinimod and Glatiramer Acetate” (TEVA PHARMACEUTICAL INDUSTRIES, LTD., priority 2011, published 2016).
Where two headings read alike, the source gives them in different places.

Tests used:
[1] = system: relapsing remitting (RR) EAE; test: Relapsing remitting EAE in Biozzi mice, combination study (Example 2.6); format: in vivo; parameters: MMS value / IMS value: scale not given here; conditions: for inhibition at 5 mg/kg / inhibition at 12.5 mg/kg / inhibition at 25 mg/kg: Mus musculus, 1416 h
Method: EAE is an animal model for multiple sclerosis. In the Biozzi AB/H EAE mice, a RR EAE can be induced. […] Re-injection of an encephalitogen can induce a chronic relapsing disease that enables measuring long-term effects on subsequent relapses rather than immediate effects.
The EAE induction was performed according to procedure “RR-EAE.Biozzi” The Biozzi mice were weighed and injected subcutaneously and re-injected one week later with encephalitogenic agent (MSCH emulsion). 0.3 mL of the encephalitogenic agent containing 1.0 mg of MSCH and 200.0 μg of MT was injected subcutaneously, at two sites in the right flank of each mouse (0.15 mL at each site). The second injection was done in a similar manner in the left flank, one week later.
On the day of first injection of encephalotigen, the Biozzi mice were randomly allocated to eight treatment groups as follows: Tables 16-17.
The 5.0 mg/mL laquinimod stock solution was diluted 1:5 to yield 1 mg/mL.
The mice in all the groups were administered daily by oral gavage a volume dose level of […] of the respective test formulations from the day the mice are allocated to the treatment groups (first injection of encephalitogen) for 59 consecutive days until the termination of the study.
The mice were examined and scored according to the following table, until the termination of the study (60 days after initiation of treatment).
The activity of the test articles for the first and second phase of RR EAE was calculated by comparing the incidence of disease, mortality, onset and duration of disease, group mean score and mean maximal score to the control group. Calculations were carried separately and together for the first and the second relapse.

MSCH-induced EAE = MSCH-induced EAE in CSJL/F1 mice (Example 2.8); format: in vivo; parameters: key to MMS value (Mean Maximal Score) / GMS value (Group Mean Score): EAE clinical score per grading table; 5 = sacrificed or died
Method: Disease was induced in all mice by the injection of the encephalitogenic emulsion (MSCH/CFA). The test articles and the vehicle were administered orally twice a day.
For groups 1 and 3 to 6, 360.0 mg MSCH was suspended in 3.0 ml PBS to yield 120 mg/ml MSCH suspension.
0.05 ml was injected into the left foot-pad of each mouse. The concentration of MSCH in emulsion in all groups was 60 mg/mL. The dose of the MSCH in all the groups was 3.0 mg/0.05 ml/mouse. The concentration of MT in emulsion in all groups was 0.25 mg/mL. The dose of the MT in all the groups was 0.0125 mg/0.05 ml/mouse.
36 μL Pertussis toxin (200 μg/ml) was added to 44.964 ml PBS to yield 160 ng/ml. The pertussis toxin was administered intravenous on the day of encephalitogen injection and 48 hours later (80.0 ng/0.5 ml/mouse).
Solutions at concentration of 0.001, 0.01, 0.03 and 0.1 mg/mL laquinimod were prepared in water for dose levels of 0.01, 0.1, 0.3 and 1.0 mg/kg respectively. The test formulations were stored at 2 to 8° C. until use in amber colored bottles.
The mice were administered with the respective dose levels of laquinimod at volume dose level of 200 μL/mouse. The test formulations were vortexed before dispensing in syringe.
The different dose levels laquinimod were administered to the respective groups once a day.
Scoring of EAE clinical signs was initiated from the 10th day post-EAE induction and was continued daily until Day 23. The clinical signs were recorded on observation cards according to a grading system described in the table 23 above. Animals with score 4 for more than three days were given score 5 and sacrificed for humane reasons. For calculation purposes, the score (5) of animals that are sacrificed or died were carried forward.
The calculations are as shown in Example 2.4.

[2] = first and second attacks together, laquinimod 5.0 mg/kg oral daily 59 d, alone or + GA 12.5 mg/kg oral
[3] = first and second attacks together, laquinimod 12.5 mg/kg oral daily 59 d
[4] = first and second attacks together, laquinimod 25.0 mg/kg oral daily 59 d, alone or + GA 12.5 mg/kg oral
[5] = first attack, LAQ 5.0 mg/kg oral daily, alone or + GA 12.5 mg/kg oral
[6] = first attack, LAQ 12.5 mg/kg oral daily
[7] = first attack, LAQ 25.0 mg/kg oral daily, alone or + GA 12.5 mg/kg oral
[8] = second attack, LAQ 5.0 mg/kg oral daily, alone or + GA 12.5 mg/kg oral
[9] = second attack, LAQ 12.5 mg/kg oral daily
[10] = second attack, LAQ 25.0 mg/kg oral daily, alone or + GA 12.5 mg/kg oral
[11] = LAQ 0.01 mg/kg daily, orally by gavage
[12] = LAQ 0.1 mg/kg daily, orally by gavage
[13] = LAQ 0.3 mg/kg daily, orally by gavage
[14] = LAQ 1.0 mg/kg daily, orally by gavage
[15] = laquinimod 0.1 mg/kg/day oral, alone or + GA 0.5 mg/kg

## CCN(C(=O)c1c(O)c2c(Cl)cccc2n(C)c1=O)c1ccccc1 [laquinimod]
[1]; first and second attacks together, laquinimod 5.0 mg/kg oral daily 59 d, alone or + GA 12.5 mg/kg oral, read-out: GMS % inhibition
  inhibition at 5 mg/kg: 21.7%
[1]; first and second attacks together, laquinimod 5.0 mg/kg oral daily 59 d, alone or + GA 12.5 mg/kg oral, read-out: Incidence % inhibition
  inhibition at 5 mg/kg: 23.1%
[1]; first and second attacks together, laquinimod 5.0 mg/kg oral daily 59 d, alone or + GA 12.5 mg/kg oral, read-out: MMS % inhibition
  inhibition at 5 mg/kg: 16.2%
[1]; first and second attacks together, laquinimod 12.5 mg/kg oral daily 59 d, read-out: GMS % inhibition
  inhibition at 12.5 mg/kg: 43.5%
[1]; first and second attacks together, laquinimod 12.5 mg/kg oral daily 59 d, read-out: Incidence % inhibition
  inhibition at 12.5 mg/kg: 23.1%
[1]; first and second attacks together, laquinimod 12.5 mg/kg oral daily 59 d, read-out: MMS % inhibition
  inhibition at 12.5 mg/kg: 22.2%
[1]; first and second attacks together, laquinimod 25.0 mg/kg oral daily 59 d, alone or + GA 12.5 mg/kg oral, read-out: GMS % inhibition
  inhibition at 25 mg/kg: 30.4%
[1]; first and second attacks together, laquinimod 25.0 mg/kg oral daily 59 d, alone or + GA 12.5 mg/kg oral, read-out: Incidence % inhibition
  inhibition at 25 mg/kg: 30.8%
[1]; first and second attacks together, laquinimod 25.0 mg/kg oral daily 59 d, alone or + GA 12.5 mg/kg oral, read-out: MMS % inhibition
  inhibition at 25 mg/kg: 27.8%
[1]; [2]
  GMS value: 1.8
  Incidence: 10/14
  MMS value: 3.1
  Mean Duration: 26.5 ± 17.0 days
  Mortality: 0/14
[1]; [3]
  GMS value: 1.3
  Incidence: 10/14
  MMS value: 2.8
  Mean Duration: 17.5 ± 14.0 days
  Mortality: 0/14
[1]; [4]
  GMS value: 1.6
  Incidence: 9/14
  MMS value: 2.6
  Mean Duration: 23.0 ± 16.4 days
  Mortality: 0/14
[1]; [5]
  IMS value: 42.9 ± 29.8
  Incidence: 10/14
  MMS % Inhibition 2: 19.4%
  MMS value: 2.9 ± 1.9
  Mean Duration: 15.4 ± 10.9 days
  Mortality: 0/14
[1]; first attack, LAQ 5.0 mg/kg oral daily, alone or + GA 12.5 mg/kg oral, listed as LAQ
  IMS % Inhibition 3: 15.6%
[1]; [6]
  IMS % Inhibition 3: 53.3%
  IMS value: 32.4 ± 24.9
  Incidence: 10/14
  MMS % Inhibition 2: 25.0%
  MMS value: 2.7 ± 1.9
  Mean Duration: 9.6 ± 8.6 days
  Mortality: 0/14
[1]; [7]
  IMS % Inhibition 3: 42.8%
  IMS value: 39.7 ± 32.3
  Incidence: 9/14
  MMS value: 2.6 ± 2.0
  Mean Duration: 13.9 ± 10.0 days
  Mortality: 0/14
[1]; [8]
  % Inhibition 1 (incidence): 1.8%
  IMS % Inhibition 3: 18.4%
  IMS value: 38.6 ± 28.5
  Incidence: 10/14
  MMS % Inhibition 2: 3.4%
  MMS value: 2.8 ± 1.8
  Mean Duration: 11.4 ± 11.5 days
  Mortality: 0/14
[1]; [9]
  % Inhibition 1 (incidence): 11.6%
  IMS % Inhibition 3: 41.4%
  IMS value: 27.7 ± 23.1
  Incidence: 9/14
  MMS % Inhibition 2: 13.8%
  MMS value: 2.5 ± 2.0
  Mean Duration: 7.9 ± 6.5 days
  Mortality: 0/14
[1]; [10]
  % Inhibition 1 (incidence): 21.5%
  IMS % Inhibition 3: 29.2%
  IMS value: 33.5 ± 32.2
  Incidence: 8/14
  MMS % Inhibition 2: 20.7%
  MMS value: 2.3 ± 2.1
  Mean Duration: 9.1 ± 8.6 days
  Mortality: 0/14
MSCH-induced EAE; [11]
  % Inhibition 1 (according to Incidence): 0.0%
  % Inhibition 2 (according to MMS): 24.4%
  % Inhibition 3 (according to GMS): 35.3%( )
  GMS value (Group Mean Score): 2.2 ± 1.2
  Incidence: 10/11
  MMS value (Mean Maximal Score): 3.4 ± 1.4
  Mean Duration: 9.5 days
  Mortality: 2/11
  Onset: 13.7 days
MSCH-induced EAE; [12]
  % Inhibition 1 (according to Incidence): 90.0%
  % Inhibition 2 (according to MMS): 42.2%
  % Inhibition 3 (according to GMS): 55.9%( )
  GMS value (Group Mean Score): 1.5 ± 1.2
  Incidence: 1/11
  MMS value (Mean Maximal Score): 2.6 ± 1.8
  Mean Duration: 6.9 days
  Mortality: 8/11
  Onset: 16.5 days
MSCH-induced EAE; [13]
  % Inhibition 1 (according to Incidence): 30.0%
  % Inhibition 2 (according to MMS): 53.3%
  % Inhibition 3 (according to GMS): 73.5%( )
  GMS value (Group Mean Score): 0.9 ± 0.9
  Incidence: 7/11
  MMS value (Mean Maximal Score): 2.1 ± 1.8
  Mean Duration: 4.2 days
  Mortality: 1/11
  Onset: 17.3 days
MSCH-induced EAE; [14]
  % Inhibition 1 (according to Incidence): 90.0%
  % Inhibition 2 (according to MMS): 93.3%
  % Inhibition 3 (according to GMS): 97.1%( )
  GMS value (Group Mean Score): 0.1 ± 0.3
  Incidence: 1/11
  MMS value (Mean Maximal Score): 0.3 ± 0.9
  Mean Duration: 0.5 days
  Mortality: 0/11
  Onset: 23.5 days
MSCH-induced EAE; laquinimod 0.01 mg/kg/day oral
  Incidence: 91%
  activity according to GMS: 35.3%
  activity according to incidence: 9.1%
  duration of disease: 13.7 ± 3.8 days
  onset of disease: 9.5 ± 3.9 days
MSCH-induced EAE; [15]
  activity according to GMS: 55.9%
  activity according to incidence: 27.3%
MSCH-induced EAE; laquinimod 0.3 mg/kg/day oral
  activity according to GMS: 73.5%
  activity according to incidence: 36.4%
MSCH-induced EAE; laquinimod 1.0 mg/kg as printed, alone or + GA 0.5 mg/kg
  activity (conclusion): 55.9%
MSCH-induced EAE; laquinimod 1.0 mg/kg/day oral
  activity according to GMS: 97.1%
  activity according to incidence: 90.9%
